Results reported in article PMC11714206, “Massively Parallel Screening of Toll/Interleukin‐1 Receptor (TIR)‐Derived Peptides Reveals Multiple Toll‐Like Receptors (TLRs)‐Targeting Immunomodulatory Peptides” (Advanced Science, 2024).
One block for each sequence: values may come before it.

Molecular target: T1, MyD88^TIR (Homo sapiens, UniProt Q99836)
T1 construct: MyD88 (residues 148–296); 6xHis; made in house; host or cells: E. coli BL21 (DE3)
Experiment: T‐Surf phage library (P8 and P3) selection against MyD88^TIR, four rounds, NGS read counts
Assay type: binding
Conditions: for P3_MyD88 Rank (after) / P3_MyD88 Rank (before): P3 library; for P8_MyD88 Rank (after) / P8_MyD88 Rank (before): P8 library; for Population: P8_MyD88 pool: P8 T-Surf phage library, 4th round of selection against MyD88 TIR, share of NGS reads
Outline: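 P8 and P3 T‐Surf libraries panned against plate-coated TIR domains (5 µg mL^−1), 1 h binding at RT, acid elution and TG1/helper-phage amplification per round. After four rounds, pools were PCR-barcoded and sequenced (NovaSeq, 100 bp paired-end, Phred ≥30); peptides ranked by read counts.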

[1] = selection against MyD88, rank after grouping
[2] = selection against MyD88, rank before grouping
[3] = P3_MyD88: rank by count after grouping
[4] = P3_MyD88: rank by count before grouping
[5] = selection against MyD88 TIR, rank by count after grouping
[6] = selection against MyD88 TIR, rank by count before grouping
[7] = 4R selection against MyD88, rank after grouping
[8] = 4R selection against MyD88, rank before grouping
[9] = selection against MyD88, rank by count after grouping
[10] = selection against MyD88, rank by count before grouping
[11] = P8_MyD88: rank by count after grouping
[12] = P8_MyD88: rank by count before grouping

T1 sequence (Q99836 148-296): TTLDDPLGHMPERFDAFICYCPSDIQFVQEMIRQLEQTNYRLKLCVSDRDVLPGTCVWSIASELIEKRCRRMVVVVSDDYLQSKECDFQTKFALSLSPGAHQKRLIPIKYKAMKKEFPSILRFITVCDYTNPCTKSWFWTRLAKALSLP

Sequence: YTALTNSGFHIFSANG
P3_MyD88 Rank (after) [1]: 497
P3_MyD88 Rank (before) [2]: 1664

Sequence: YTALTNSGFHTFRDHE
P3_MyD88 Rank (after) [5]: 227
P3_MyD88 Rank (before) [6]: 1676

Sequence: YTALTNSGFLSFRDTD
Rank (after) [3]: 428
Rank (before) [4]: 1661

Sequence: YTALTNSGVHTFLDND
P3_MyD88 Rank (after) [5]: 206
P3_MyD88 Rank (before) [6]: 1688

Sequence: YTALTNSRLHNFRDND
P3_MyD88 Rank (after) [9]: 696
P3_MyD88 Rank (before) [10]: 1707

Sequence: YTALTNSSFHTFRDNH
P3_MyD88 Rank (after) [1]: 514
P3_MyD88 Rank (before) [2]: 1697

Sequence: YTALTYSGFHTFRDNV
P3_MyD88 Rank (after) [5]: 276
P3_MyD88 Rank (before) [6]: 1642

Sequence: YTALTYSGFHTFRGND
P3_MyD88 Rank (after) [7]: 645
P3_MyD88 Rank (before) [8]: 1641

Sequence: YTAMTNSGFHTFRGND
Rank (after) [3]: 429
Rank (before) [4]: 1711

Sequence: YTELTSSGFHTFRDND
P3_MyD88 Rank (after) [5]: 198
P3_MyD88 Rank (before) [6]: 1713

Sequence: YTSLTNRGFLIFRDND
P3_MyD88 Rank (after) [7]: 596
P3_MyD88 Rank (before) [8]: 1624

Sequence: YVDSPWALDELVKILQ
P8_MyD88 Rank (after) [5]: 207
P8_MyD88 Rank (before) [6]: 300

Sequence: YYDSRWALDELLKILDAKETM
Rank (after) [11]: 470
Rank (before) [12]: 1677

Sequence: YYDSRWALDELLKILYANETM
Rank (after) [11]: 171
Rank (before) [12]: 192
Population: 0.00617%

Sequence: YYDSRWALDELLQILHARELF
P8_MyD88 Rank (after) [5]: 232
P8_MyD88 Rank (before) [6]: 437

Sequence: YYDSRWALDELWLILEQR
P8_MyD88 Rank (after) [9]: 749
P8_MyD88 Rank (before) [10]: 1673

Sequence: YYDSRWALNELLEIL
Rank (after) (P8_MyD88: rank by NGS read count after grouping): 903
Rank (before) (P8_MyD88: rank by NGS read count before grouping): 1682

Sequence: YYFTDWDSEAEIIQKM
Rank (after) [11]: 112
Rank (before) [12]: 118
Population: 0.02%

Sequence: YYLDHSHPRKQNGEFG
P3_MyD88 Rank (after) [1]: 556
P3_MyD88 Rank (before) [2]: 1436

Sequence: YYLDPSHLRKHSGEIG
P3_MyD88 Rank (after) [1]: 558
P3_MyD88 Rank (before) [2]: 1464

Sequence: YYLDPSHLRKQSGW
P3_MyD88 Rank (after) [9]: 720
P3_MyD88 Rank (before) [10]: 1453

Sequence: YYLDPSHLRKQSVEFS
Rank (after) [3]: 473
Rank (before) [4]: 1451

Sequence: YYLDPSHLRKQTGSLAKAFA
P3_MyD88 Rank (after) [5]: 224
P3_MyD88 Rank (before) [6]: 1463

Sequence: YYLDTSHHRKQSGEFG
P3_MyD88 Rank (after) [5]: 246
P3_MyD88 Rank (before) [6]: 1438

The next lines start with the values.

Rank (after) [3]: 119
Rank (before) [4]: 1665
Sequence: YTALTNSGFHTFLDNY

P3_MyD88 Rank (after) [7]: 659
P3_MyD88 Rank (before) [8]: 1668
Sequence: YTALTNSGFHTFRVNV

Rank (after) [3]: 171
Rank (before) [4]: 1662
Sequence: YTALTNSGFPTFRDHD

P3_MyD88 Rank (after) [7]: 668
P3_MyD88 Rank (before) [8]: 1683
Sequence: YTALTNSGFSEENLF

Rank (after) [3]: 174
Rank (before) [4]: 1691
Sequence: YTALTNSGIHTLRDND

P3_MyD88 Rank (after) [5]: 219
P3_MyD88 Rank (before) [6]: 1696
Sequence: YTALTNSSFHTFLDND

P3_MyD88 Rank (after) [5]: 225
P3_MyD88 Rank (before) [6]: 1708
Sequence: YTARTNSGFHTFLDND

P8_MyD88 Rank (after) [1]: 484
P8_MyD88 Rank (before) [2]: 1678
Sequence: YYDSRWALDELLKIL

P8_MyD88 Rank (after) [9]: 692
P8_MyD88 Rank (before) [10]: 1687
Sequence: YYFTIGIAKRKLSRK

Rank (after) [3]: 418
Rank (before) [4]: 1439
Sequence: YYLDPSHLRKQRGEVD

P3_MyD88 Rank (after) [5]: 255
P3_MyD88 Rank (before) [6]: 1460
Sequence: YYLDPSHLRKQSGESE

P3_MyD88 Rank (after) [9]: 728
P3_MyD88 Rank (before) [10]: 1459
Sequence: YYLDPSHLRKQSGESERL

P3_MyD88 Rank (after) [5]: 283
P3_MyD88 Rank (before) [6]: 1475
Sequence: YYLEPIYLRKQSGDFG
